Where “and” joins values, the source holds several entries; their conditions need not be identical. Identical values can stand only once. Entries after “also recorded” stand apart in the source; their conditions may differ.
What was measured:
[1] = system: Caco-2; test: In vitro anti-proliferative activity (MTT assay), Caco-2; type: cell-based; settings: Homo sapiens, Caco-2; MTT assay; mean of three replicates
Procedure: (§1) Target quinolines 8a–c, indolines 12a and 12b were assessed for their potential anti-proliferative effects against a panel of three different cancer cell lines; colon (Caco-2), hepatocellular (HepG2), and breast (MDA-MB-231) cancer cell lines using standard MTT assay protocol. The obtained results confirmed the anti-cancer effects of the tested compounds against the three types of cancerous cell lines, expressed as the median growth inhibitory concentration (IC50), and were presented in Table 1.
(§2) Anti-proliferative activities of the experimented compounds were assessed against Caco-2, HepG-2, and MDA-MB-231 cell lines using MTT assay protocol[54]^,[74] as described in Supplementary data. […]
(§3) a- Mammalian cell lines culture
(§4) WISH, CaCo-2, and A549 cell lines were cultured on DMEM media, meanwhile MDA-MB-231 and hepG-2 cell line were cultured on RBMI media. The cultured media were supplemented with 200 mM L-glutamine, 10.0% fetal bovine serum (Lonza), and 1.0% penicillin/streptomycin. Cells were seeded into 25.0 cm tissue culture flasks and incubated at 37◦C in a 5.0% CO2 incubator for 24 h or till confluency.
(§5) The safety profiles of the tested compounds were checked on one non-cancerous cell line (Vero) to […]
(§6) of 100.0 µl of 6×10^4 cell/ml cells was seeded into each well of a 96-well plate and then the plates were incubated at 37 °C in a humidified 5.0% CO2 incubator for 24 h. At the end of incubation period, the exhausted medium was replaced with 100.0 µl of different concentrations of the designated treatment (prepared in RPMI medium starting from 1.0 mM). The inoculated plates were incubated at the same growth conditions for another 24 h. At the end of incubation, cellular viability was assessed using MTS assay kit (Promega) according to the manual instruction. c- In-vitro anticancer activity
(§7) Anticancer activities of the tested compounds against CaCo-2, MDA-MB-231, and hepG-2 cell lines were quantified using MTS assay kit (Promega) as described by the Manufacturer. d- Selectivity index (SI)
(§8) The selectivity index values of the tested compounds on cancer cells were calculated as described by Koch et al., with slight modifications; SI=IC50nc/IC50cc, where IC50nc: the IC 50 value of the tested compound on normal cells and IC 50cc: IC50 of the te sted compound on cancer cell line . […]

[2] = as above; type: cell-based; settings: African green monkey (Vero); human (Caco-2); SI = Cytotoxicity against Vero cells / Cytotoxicity against Caco-2 cell line; read-out: Selectivity index (SI) (Caco-2)
Procedure: as §1, §2, §3, §4, §5, §6, §7, §8

[3] = Safety assay: in-vitro viability on non-cancerous Vero cell line; type: cell-based; settings: African green monkey, Vero cells (non-cancerous cell line), MTT assay, read-out: Cytotoxicity against Vero (IC50 µM)
Procedure: An in-vitro viability test was used to investigate the safety patterns of the tested compounds at different concentrations (1.0 mM/mL to 50 µM/mL). The Vero cell line was used as a non-cancerous cell line model to investigate the safety of the synthesised compounds. […] Such values were very high in comparison to the corresponding values on cancer cell lines, which reflect the high in vitro safety profile of the tested members towards non-cancerous cell lines (Table 2). […]
as §3, §4, §5
of 100.0 µl of 6×10^4 cell/ml cells was seeded into each well of a 96-well plate and then the plates were incubated at 37 °C in a humidified 5.0% CO2 incubator for 24 h. At the end of incubation period, the exhausted medium was replaced with 100.0 µl of different concentrations of the designated treatment (prepared in RPMI medium starting from 1.0 mM). The inoculated plates were incubated at the same growth conditions for another 24 h. At the end of incubation, cellular viability was assessed using MTS assay kit (Promega) according to the manual instruction. […]
d- Selectivity index (SI)
as §8

[4] = target: T1, VEGFR-2 (Homo sapiens, UniProt P35968); test: In vitro VEGFR-2 kinase assay (VEGFR-2 ELISA kit); type: biochemical; settings: for HillSlope, best-fit value, VEGFR-2 inhibition / LogIC50, best-fit value, VEGFR-2 inhibition: raw data curve fit, % remaining activity
T1 construct: purchased
Description: To explore the molecular mechanism of the tested compounds as anticancer agents, the compounds were further evaluated to assess their enzymatic inhibitory potential against VEGFR-2.
VEGFR-2 inhibitory activity of the experimented compounds was preceded using a VEGFR-2 ELISA kit as reported and described in Supplementary data.

[5] = system: MDA-MB-231; test: In vitro anti-proliferative activity (MTT assay), MDA-MB-231; type: cell-based; settings: for IC50: Homo sapiens, MDA-MB-231, MTT assay, mean of three replicates; for Selectivity index (SI) (MDA-MB-231): SI = Cytotoxicity against Vero cells / Cytotoxicity against MDA-MB-231 cell line
Procedure: as §1, §2, §3, §4, §5, §6, §7, §8

[6] = system: HepG2; test: In vitro anti-proliferative activity (MTT assay), HepG2; type: cell-based; settings: for IC50: Homo sapiens, HepG2, MTT assay, mean of three replicates; for Selectivity index (SI) (HepG2): SI = Cytotoxicity against Vero cells / Cytotoxicity against HepG2 cell line
Procedure: as §1, §2, §3, §4, §5, §6, §7, §8

[7] = system: TGF; test: Gene expression by RT-qPCR in Caco-2 cells, TGF; type: cell-based; settings: Caco-2 treated with 2 µM (IC50 value) of 12a, compared to control cells
Description: (§9) These findings indicate the efficiency of compound 12a in the induction of apoptosis (Figure 4).
(§10) The molecular anticancer mode of action of 12a was investigated by screening their ability to control the gene expression levels of Bcl2, Bcl-xl, TGF and Survivin genes as reported[79] in Supplementary data. […]
(§11) f- Gene expression pattern alternation of cancer cell after 12a treatment The molecular anticancer mode of action of 12a was investigated by screening their ability to affect the gene expression levels of Bcl2, Bcl-xl, TGF and Survivin genes using specific forward and reverse primers and RTq-PCR technique (Table 1) in CaCo-2 cells (chosen as the most sensitive cancer cell line). After cellular treatment, CaCo-2 cell line was cultured into 12 well plates (6×10^3 cell/ml) for 24 h. with the sub- […]
(§12) After treatment, total RNA extraction was performed using RNA extraction kit (Qiagen, Germany). Then, 1 ug of the obtained RNA was used to synthesiz cDNA using cDNA synthesis kit (Promega Corp., Madison, WI) as recommended by the manufacturer. Simultaneously, GAPDH forward and reverse primers (Table 1) were used to amplify the house keeping gene as internal control for standardization of PCR products. The RTq-PCR was done using SYBR Green dye (QuantiTect SYBR Green PCR Kits) and Light Cycler fluorimeter (Bio-RAD S1000 Tm thermal cycler). […]

[8] = system: Bcl-xl; test: Gene expression by RT-qPCR in Caco-2 cells, Bcl-xl; type: cell-based; settings: Caco-2 treated with 2 µM (IC50 value) of 12a, compared to control cells
Description: as §9, §10, §11, §12

[9] = system: Survivin; test: Gene expression by RT-qPCR in Caco-2 cells, Survivin; type: cell-based; settings: Caco-2 treated with 2 µM (IC50 value) of 12a, compared to control cells
Description: as §9, §10, §11, §12

[10] = system: Bcl2; test: Gene expression by RT-qPCR in Caco-2 cells, Bcl2; type: cell-based; settings: Caco-2 treated with 2 µM (IC50 value) of 12a, compared to control cells
Description: as §9, §10, §11, §12

[11] = system: Caco-2 cells; test: Cell migration (in-vitro scratch / wound healing) assay; type: cell-based
Description: The potential of compound 12a to inhibit the ability of Caco-2 cells to migrate and heal was investigated through the in-vitro scratch assay which is a low-cost easy and well-developed method. The basic concept of this method involves the generation of a scratch in a cancer cell line monolayer, recording the diameter at the beginning, and at regular intervals during cell migration to close that scratch. The obtained results of the treated cell line are then compared to the untreated cell line. Images of scratched areas from the time points; 0, 24 are illustrated in Figure 3.
Regarding the representative control, the scratch was completely closed within 24 h (Figure 3(C)). […] This significant morphological change could be linked to the incidence of apoptosis in the treated cancer cells.
Cell migration assay was fulfilled according to the reported protocol as described[78] in Supplementary data. […]
as §3
WISH, CaCo-2, and A549 cell lines were cultured on DMEM media, meanwhile MDA-MB-231 and hepG-2 cell line were cultured on RBMI media. The cultured media were supplemented with 200 mM L-glutamine, 10.0% fetal bovine serum (Lonza), and 1.0% penicillin/streptomycin. Cells were seeded into 25.0 cm tissue culture flasks and incubated at 37◦C in a 5.0% CO2 incubator for 24 h or till confluency. […]
e- Wound healing assay (Migration assay)
CaCo-2 cells were grown to 95.0% confluency in a complete DMEM medium and then the wounds were formed using a plastic tip. After washing with pre -warmed PBS, the cells were incubated in the specific medium or the 12a treatment. After incubation at 37°C and 5.0% CO 2 for 24h, the cells were washed with PBS and the wounds distance was determined as the scratch width of the treated and untreated groups using […]

T1 sequence (P35968 20-1356): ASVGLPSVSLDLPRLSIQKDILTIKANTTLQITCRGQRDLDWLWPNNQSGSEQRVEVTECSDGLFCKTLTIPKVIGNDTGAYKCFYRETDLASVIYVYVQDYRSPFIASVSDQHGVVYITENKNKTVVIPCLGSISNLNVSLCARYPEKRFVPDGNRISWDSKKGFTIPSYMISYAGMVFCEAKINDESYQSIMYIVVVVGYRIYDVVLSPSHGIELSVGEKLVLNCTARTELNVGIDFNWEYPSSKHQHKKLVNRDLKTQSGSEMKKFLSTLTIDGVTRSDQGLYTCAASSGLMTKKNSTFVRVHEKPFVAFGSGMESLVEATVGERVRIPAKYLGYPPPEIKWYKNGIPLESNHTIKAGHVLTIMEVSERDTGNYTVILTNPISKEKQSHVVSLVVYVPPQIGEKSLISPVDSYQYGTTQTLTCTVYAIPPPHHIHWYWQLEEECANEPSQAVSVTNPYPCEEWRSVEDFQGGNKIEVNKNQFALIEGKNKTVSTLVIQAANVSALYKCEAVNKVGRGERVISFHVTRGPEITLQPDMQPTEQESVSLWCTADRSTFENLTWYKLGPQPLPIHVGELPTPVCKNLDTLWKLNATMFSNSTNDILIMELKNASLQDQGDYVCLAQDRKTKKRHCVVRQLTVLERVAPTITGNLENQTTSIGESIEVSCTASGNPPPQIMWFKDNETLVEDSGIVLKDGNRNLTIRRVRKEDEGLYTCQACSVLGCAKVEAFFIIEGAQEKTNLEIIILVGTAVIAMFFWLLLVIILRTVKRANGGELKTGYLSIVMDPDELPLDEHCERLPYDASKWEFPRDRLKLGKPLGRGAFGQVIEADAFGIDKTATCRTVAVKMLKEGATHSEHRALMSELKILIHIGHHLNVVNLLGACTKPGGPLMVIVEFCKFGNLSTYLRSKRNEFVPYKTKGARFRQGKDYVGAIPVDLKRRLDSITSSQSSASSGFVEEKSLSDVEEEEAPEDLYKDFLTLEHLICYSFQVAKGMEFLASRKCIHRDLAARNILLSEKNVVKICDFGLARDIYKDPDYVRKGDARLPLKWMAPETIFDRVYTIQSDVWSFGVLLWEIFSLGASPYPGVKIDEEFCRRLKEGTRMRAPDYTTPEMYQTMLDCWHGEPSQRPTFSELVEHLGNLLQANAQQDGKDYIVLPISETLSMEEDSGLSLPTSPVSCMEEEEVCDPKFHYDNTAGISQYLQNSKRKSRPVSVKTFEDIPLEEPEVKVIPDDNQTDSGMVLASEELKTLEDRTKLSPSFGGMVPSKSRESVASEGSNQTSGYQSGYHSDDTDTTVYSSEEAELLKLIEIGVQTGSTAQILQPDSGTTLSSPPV

| SMILES | IC50 [1] [µM] | selectivity ratio [2] | IC50 at 24 h [3] [µM] | IC50 [4] [µM] | HillSlope, best-fit value, VEGFR-2 inhibition [4] | LogIC50, best-fit value, VEGFR-2 inhibition [4] | IC50 [5] [µM] | Selectivity index (SI) (MDA-MB-231) [5] | IC50 [6] [µM] | Selectivity index (SI) (HepG2) [6] | TGF gene expression [7] | Bcl-xl gene expression [8] | Survivin gene expression [9] | Bcl2 gene expression [10] | wound diameter of treated Caco-2 cells ([11]; 12a at sub IC50 value (1 µM), 24 h, 0.348 mm at 0 h, control scratch completely closed within 24 h) [mm] | scratch closure and cancer cell migration ([11]; Caco-2, 1 µM, 24 h) | Caco-2 cell shape ([11]; within 24 h) |
| --- | --- | --- | --- | --- | --- | --- | --- | --- | --- | --- | --- | --- | --- | --- | --- | --- | --- |
| Cc1ccc(NC(=O)CN2C(=O)SC(=Cc3cc4ccccc4[nH]c3=O)C2=O)cc1 [Compound 8a, 2–(2,4-Dioxo-5-((2-oxo-1,2-dihydroquinolin-3-yl)methylene)thiazolidin-3-yl)-N-(p-tolyl)acetamide] | 9 ± 0.001 | 177 | 1590 ± 0.068 | 0.0966 | -0.4030 | 1.985 Log (nM) | 150 ± 0.01 | 10.60 | 86 ± 0.001 | 18.49 | – | – | – | – | – | – | – |
| O=C(CN1C(=O)SC(=Cc2cc3ccccc3[nH]c2=O)C1=O)NCCc1ccccc1 [Compound 8b, 2–(2,4-Dioxo-5-((2-oxo-1,2-dihydroquinolin-3-yl)methylene)thiazolidin-3-yl)-N-phenethylacetamide] | 150 ± 0.013 | 5.93 | 890 ± 0.015 | 0.0874 | -0.3502 | 1.941 Log (nM) | 60 ± 0.003 | 14.83 | 60 ± 0.008 | 14.83 | – | – | – | – | – | – | – |
| O=C(CN1C(=O)SC(=Cc2cc3ccccc3[nH]c2=O)C1=O)Nc1ccccc1[N+](=O)[O-] [Compound 8c, 2–(2,4-Dioxo-5-((2-oxo-1,2-dihydroquinolin-3-yl)methylene)thiazolidin-3-yl)-N-(2-nitrophenyl)acetamide] | 90 ± 0.004 | 4.33 | 390 ± 0.02 | 0.318 | -0.3460 | 2.502 Log (nM) | 70 ± 0.009 | 5.57 | 156 ± 0.004 | 2.50 | – | – | – | – | – | – | – |
| Cc1ccc(NC(=O)CN2C(=O)S/C(=C3\C(=O)Nc4ccccc43)C2=O)cc1 [Compound 12a, (Z)-2–(2,4-dioxo-5–(2-oxoindolin-3-ylidene)thiazolidin-3-yl)-N-(p-tolyl)acetamide] | 2 ± 0.005 | 365 | 730 ± 0.015 | – | -0.4584 | 2.066 Log (nM) | 40 ± 0.002 | 18 and 18.25 | 10 ± 0.001 | 73.00 | upregulation; also recorded: upregulate | significant down-regulation; also recorded: downregulate | significant down-regulation; also recorded: downregulate | significant down-regulation; also recorded: downregulate | 0.335 | significantly inhibited the scratch closure and cancer cell migration; also recorded: significantly inhibited the ability of cancer cells to migrate and heal | changed the Caco-2 cell shape from an irregular into the normalised round form; also recorded: changed the cancer cell shape from irregular to a normalised round form |
| O=C(CN1C(=O)S/C(=C2\C(=O)Nc3ccccc32)C1=O)Nc1ccccc1[N+](=O)[O-] [Compound 12b, (Z)-2–(2,4-dioxo-5–(2-oxoindolin-3-ylidene)thiazolidin-3-yl)-N-(2-nitrophenyl) acetamide] | 120 ± 0.001 | 4 | 480 ± 40 | 0.0841 | -0.2985 | 1.925 Log (nM) | 37 ± 0.002 | 12.97 | 49 ± 0.008 | 9.80 | – | – | – | – | – | – | – |
| COc1cccc2c1C(=O)c1c(O)c3c(c(O)c1C2=O)C[C@@](O)(C(=O)CO)C[C@@H]3O[C@H]1C[C@H](N)[C@H](O)[C@H](C)O1 [Doxorubicin, reference compound] | 3.46 ± 0.003 | – | – | – | – | – | 0.98 ± 0.01 | – | 1.15 ± 0.02 | – | – | – | – | – | – | – | – |

Reference: PMC9272924, “Design and synthesis of thiazolidine-2,4-diones hybrids with 1,2-dihydroquinolones and 2-oxindoles as potential VEGFR-2 inhibitors: in-vitro anticancer evaluation and in-silico studies” (Journal of Enzyme Inhibition and Medicinal Chemistry, 2022)
